In ChEMBL document CHEMBL4507285, “Data for DCP probe MRL-SYKi” (2021):

Columns and labels:
[1] = test system: Epidermal growth factor receptor (Homo sapiens), P00533 [UNDEFINED MUTATION]; settings: Compound concentration 100.0 nM
[2] = molecular target: 3-phosphoinositide-dependent protein kinase 1 (Homo sapiens) (UniProt O15530); settings: Compound concentration 100.0 nM
[3] = test system: Phosphatidylinositol 4,5-bisphosphate 3-kinase catalytic subunit alpha isoform (Homo sapiens), P42336 [E542K]; settings: Compound concentration 100.0 nM
[4] = molecular target: Serine/threonine-protein kinase mTOR (Homo sapiens) (UniProt P42345); settings: Compound concentration 100.0 nM
[5] = test system: Tyrosine-protein kinase ABL1 (Homo sapiens), P00519 [H396P]; settings: Compound concentration 100.0 nM
[6] = molecular target: Serine/threonine-protein kinase Nek3 (Homo sapiens) (UniProt P51956); settings: Compound concentration 100.0 nM
[7] = molecular target: Histamine H1 receptor (Homo sapiens) (UniProt P35367); settings: Compound concentration 10.0 uM
[8] = molecular target: Ribosomal protein S6 kinase alpha-2 (Homo sapiens) (UniProt Q15349); settings: Compound concentration 100.0 nM
Sequence of Ribosomal protein S6 kinase alpha-2 (Homo sapiens) (Q15349 whole entry): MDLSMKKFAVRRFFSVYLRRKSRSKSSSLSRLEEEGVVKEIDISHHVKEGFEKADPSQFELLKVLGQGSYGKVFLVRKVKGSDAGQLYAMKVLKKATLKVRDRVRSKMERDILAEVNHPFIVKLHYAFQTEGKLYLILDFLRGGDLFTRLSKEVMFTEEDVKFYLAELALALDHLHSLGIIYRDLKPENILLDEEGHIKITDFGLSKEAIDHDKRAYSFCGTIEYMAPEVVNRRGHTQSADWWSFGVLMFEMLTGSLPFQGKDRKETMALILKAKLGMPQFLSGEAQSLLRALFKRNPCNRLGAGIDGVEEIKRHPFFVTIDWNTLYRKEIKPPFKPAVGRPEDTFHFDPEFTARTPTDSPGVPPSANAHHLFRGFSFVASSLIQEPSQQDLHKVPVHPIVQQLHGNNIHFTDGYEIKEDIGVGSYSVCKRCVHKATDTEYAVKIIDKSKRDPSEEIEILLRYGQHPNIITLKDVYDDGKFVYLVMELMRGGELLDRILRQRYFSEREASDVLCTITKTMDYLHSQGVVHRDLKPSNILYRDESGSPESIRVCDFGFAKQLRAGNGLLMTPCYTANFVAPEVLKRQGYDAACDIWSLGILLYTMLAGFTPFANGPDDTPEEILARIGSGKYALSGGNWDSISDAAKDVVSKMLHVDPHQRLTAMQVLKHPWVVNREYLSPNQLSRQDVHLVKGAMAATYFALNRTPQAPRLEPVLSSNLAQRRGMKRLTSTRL

[9] = molecular target: Cyclin-dependent kinase 11A (Homo sapiens) (UniProt Q9UQ88); settings: Compound concentration 100.0 nM
[10] = molecular target: Mitogen-activated protein kinase kinase kinase 6 (Homo sapiens) (UniProt O95382); settings: Compound concentration 100.0 nM
[11] = molecular target: Ribosomal protein S6 kinase alpha-5 (Homo sapiens) (UniProt O75582); settings: Compound concentration 100.0 nM
[12] = molecular target: Vascular endothelial growth factor receptor 1 (Homo sapiens) (UniProt P17948); settings: Compound concentration 100.0 nM
[13] = molecular target: Kappa-type opioid receptor (Homo sapiens) (UniProt P41145); settings: Compound concentration 10.0 uM
Sequence of Kappa-type opioid receptor (Homo sapiens) (P41145 whole entry, canonical isoform): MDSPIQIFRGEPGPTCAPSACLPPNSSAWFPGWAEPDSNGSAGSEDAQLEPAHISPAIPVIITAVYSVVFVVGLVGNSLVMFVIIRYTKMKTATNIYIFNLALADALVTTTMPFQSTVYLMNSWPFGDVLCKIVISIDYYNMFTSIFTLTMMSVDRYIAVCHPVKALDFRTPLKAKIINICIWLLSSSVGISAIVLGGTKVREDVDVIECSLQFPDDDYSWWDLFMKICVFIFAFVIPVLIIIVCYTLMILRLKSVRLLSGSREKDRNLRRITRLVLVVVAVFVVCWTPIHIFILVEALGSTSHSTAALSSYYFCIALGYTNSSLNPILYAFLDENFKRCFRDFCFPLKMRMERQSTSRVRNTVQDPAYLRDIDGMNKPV

[14] = molecular target: Phosphorylase b kinase regulatory subunit alpha, liver isoform (Homo sapiens) (UniProt P46019); settings: Compound concentration 100.0 nM
[15] = molecular target: Aurora kinase A (Homo sapiens) (UniProt O14965); settings: Compound concentration 100.0 nM
[16] = molecular target: TRAF2 and NCK-interacting protein kinase (Homo sapiens) (UniProt Q9UKE5); settings: Compound concentration 100.0 nM
[17] = molecular target: Serine/threonine-protein kinase Sgk3 (Homo sapiens) (UniProt Q96BR1); settings: Compound concentration 100.0 nM
[18] = molecular target: Leukocyte tyrosine kinase receptor (Homo sapiens) (UniProt P29376); settings: Compound concentration 100.0 nM
[19] = molecular target: Sodium-dependent serotonin transporter (Homo sapiens) (UniProt P31645); settings: Compound concentration 10.0 uM
Sequence of Sodium-dependent serotonin transporter (Homo sapiens) (P31645 whole entry, looked up): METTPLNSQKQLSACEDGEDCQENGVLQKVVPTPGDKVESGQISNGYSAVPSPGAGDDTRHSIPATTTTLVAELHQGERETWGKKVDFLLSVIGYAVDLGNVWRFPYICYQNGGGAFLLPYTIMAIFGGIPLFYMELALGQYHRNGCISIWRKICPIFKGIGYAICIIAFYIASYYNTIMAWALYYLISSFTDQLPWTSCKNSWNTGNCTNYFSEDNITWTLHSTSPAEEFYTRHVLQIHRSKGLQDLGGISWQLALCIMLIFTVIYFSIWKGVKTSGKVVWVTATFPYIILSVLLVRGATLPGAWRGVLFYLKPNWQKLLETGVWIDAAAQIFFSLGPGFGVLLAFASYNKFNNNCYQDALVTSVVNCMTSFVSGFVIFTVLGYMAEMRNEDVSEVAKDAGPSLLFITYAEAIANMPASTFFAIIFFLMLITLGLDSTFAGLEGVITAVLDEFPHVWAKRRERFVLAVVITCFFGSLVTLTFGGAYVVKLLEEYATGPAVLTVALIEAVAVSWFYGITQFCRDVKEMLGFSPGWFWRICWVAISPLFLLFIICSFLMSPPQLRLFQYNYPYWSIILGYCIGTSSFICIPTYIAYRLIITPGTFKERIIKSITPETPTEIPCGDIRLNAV

[20] = molecular target: Beta-adrenergic receptor kinase 1 (Homo sapiens) (UniProt P25098); settings: Compound concentration 100.0 nM
[21] = molecular target: Bone morphogenetic protein receptor type-1A (Homo sapiens) (UniProt P36894); settings: Compound concentration 100.0 nM
[22] = molecular target: Mitotic checkpoint serine/threonine-protein kinase BUB1 (Homo sapiens) (UniProt O43683); settings: Compound concentration 100.0 nM
[23] = molecular target: Mitogen-activated protein kinase kinase kinase 13 (Homo sapiens) (UniProt O43283); settings: Compound concentration 100.0 nM
Sequence of Mitogen-activated protein kinase kinase kinase 13 (Homo sapiens) (O43283 whole entry): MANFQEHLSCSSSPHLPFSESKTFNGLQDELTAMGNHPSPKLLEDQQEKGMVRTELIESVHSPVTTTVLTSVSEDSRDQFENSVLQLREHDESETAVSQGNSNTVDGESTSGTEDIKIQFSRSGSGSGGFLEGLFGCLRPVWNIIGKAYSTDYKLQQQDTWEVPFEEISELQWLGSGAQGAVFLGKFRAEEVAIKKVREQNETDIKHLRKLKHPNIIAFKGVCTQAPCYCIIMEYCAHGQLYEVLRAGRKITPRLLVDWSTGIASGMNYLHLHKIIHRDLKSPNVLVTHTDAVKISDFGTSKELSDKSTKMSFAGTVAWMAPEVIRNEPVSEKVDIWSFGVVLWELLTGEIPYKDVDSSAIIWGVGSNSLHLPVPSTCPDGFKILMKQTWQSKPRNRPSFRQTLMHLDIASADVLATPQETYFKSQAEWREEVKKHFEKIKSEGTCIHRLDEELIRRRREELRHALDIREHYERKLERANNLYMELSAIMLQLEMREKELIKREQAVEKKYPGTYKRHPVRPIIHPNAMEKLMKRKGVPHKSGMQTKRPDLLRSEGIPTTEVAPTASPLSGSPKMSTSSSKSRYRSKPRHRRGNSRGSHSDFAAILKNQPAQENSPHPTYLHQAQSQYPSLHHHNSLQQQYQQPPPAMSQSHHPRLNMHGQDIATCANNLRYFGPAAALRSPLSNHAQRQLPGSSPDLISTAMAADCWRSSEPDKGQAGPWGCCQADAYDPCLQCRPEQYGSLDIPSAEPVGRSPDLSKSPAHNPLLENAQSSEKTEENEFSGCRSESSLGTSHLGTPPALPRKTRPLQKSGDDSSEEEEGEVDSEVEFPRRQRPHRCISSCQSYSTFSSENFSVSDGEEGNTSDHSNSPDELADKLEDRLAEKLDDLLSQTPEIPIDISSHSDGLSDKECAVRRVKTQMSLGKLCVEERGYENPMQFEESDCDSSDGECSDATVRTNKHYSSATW

[24] = molecular target: Dual specificity mitogen-activated protein kinase kinase 4 (Homo sapiens) (UniProt P45985); settings: Compound concentration 100.0 nM
[25] = test system: Phosphatidylinositol 4,5-bisphosphate 3-kinase catalytic subunit alpha isoform (Homo sapiens), P42336 [E545A]; settings: Compound concentration 100.0 nM
[26] = test system: Tyrosine-protein kinase ABL1 (Homo sapiens), P00519 [Y253F]; settings: Compound concentration 100.0 nM
[27] = molecular target: cGMP-dependent protein kinase 1 (Homo sapiens) (UniProt Q13976); settings: Compound concentration 100.0 nM
Sequence of cGMP-dependent protein kinase 1 (Homo sapiens) (Q13976 whole entry): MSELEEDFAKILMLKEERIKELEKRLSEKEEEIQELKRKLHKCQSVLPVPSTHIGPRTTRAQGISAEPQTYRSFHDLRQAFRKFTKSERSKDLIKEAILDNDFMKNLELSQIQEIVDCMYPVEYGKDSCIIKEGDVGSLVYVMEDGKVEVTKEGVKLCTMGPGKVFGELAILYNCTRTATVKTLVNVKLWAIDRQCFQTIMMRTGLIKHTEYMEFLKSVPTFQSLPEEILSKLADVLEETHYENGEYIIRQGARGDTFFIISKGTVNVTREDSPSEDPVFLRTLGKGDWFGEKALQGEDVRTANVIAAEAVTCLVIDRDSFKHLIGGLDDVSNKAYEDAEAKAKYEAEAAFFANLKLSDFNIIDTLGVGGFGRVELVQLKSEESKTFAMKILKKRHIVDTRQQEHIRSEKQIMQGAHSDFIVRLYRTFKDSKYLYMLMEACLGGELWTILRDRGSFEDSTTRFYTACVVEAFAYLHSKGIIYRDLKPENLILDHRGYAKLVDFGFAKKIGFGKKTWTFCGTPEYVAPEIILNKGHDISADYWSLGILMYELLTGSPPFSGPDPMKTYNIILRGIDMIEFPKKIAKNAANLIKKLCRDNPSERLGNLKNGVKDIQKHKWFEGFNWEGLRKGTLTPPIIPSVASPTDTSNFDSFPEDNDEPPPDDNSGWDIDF

[28] = molecular target: SRSF protein kinase 1 (Homo sapiens) (UniProt Q96SB4); settings: Compound concentration 100.0 nM
[29] = molecular target: LIM domain kinase 2 (Homo sapiens) (UniProt P53671); settings: Compound concentration 100.0 nM
[30] = molecular target: Proto-oncogene tyrosine-protein kinase receptor Ret (Homo sapiens) (UniProt P07949); settings: Compound concentration 100.0 nM
[31] = molecular target: Aurora kinase C (Homo sapiens) (UniProt Q9UQB9); settings: Compound concentration 100.0 nM
[32] = molecular target: Serine/threonine-protein kinase WNK4 (Homo sapiens) (UniProt Q96J92); settings: Compound concentration 100.0 nM
[33] = molecular target: Serine/threonine-protein kinase LATS2 (Homo sapiens) (UniProt Q9NRM7); settings: Compound concentration 100.0 nM
[34] = molecular target: Mitogen-activated protein kinase kinase kinase 20 (Homo sapiens) (UniProt Q9NYL2); settings: Compound concentration 100.0 nM
[35] = molecular target: Serine/threonine-protein kinase 33 (Homo sapiens) (UniProt Q9BYT3); settings: Compound concentration 100.0 nM
[36] = molecular target: Death-associated protein kinase 2 (Homo sapiens) (UniProt Q9UIK4); settings: Compound concentration 100.0 nM
Sequence of Death-associated protein kinase 2 (Homo sapiens) (Q9UIK4 whole entry, looked up): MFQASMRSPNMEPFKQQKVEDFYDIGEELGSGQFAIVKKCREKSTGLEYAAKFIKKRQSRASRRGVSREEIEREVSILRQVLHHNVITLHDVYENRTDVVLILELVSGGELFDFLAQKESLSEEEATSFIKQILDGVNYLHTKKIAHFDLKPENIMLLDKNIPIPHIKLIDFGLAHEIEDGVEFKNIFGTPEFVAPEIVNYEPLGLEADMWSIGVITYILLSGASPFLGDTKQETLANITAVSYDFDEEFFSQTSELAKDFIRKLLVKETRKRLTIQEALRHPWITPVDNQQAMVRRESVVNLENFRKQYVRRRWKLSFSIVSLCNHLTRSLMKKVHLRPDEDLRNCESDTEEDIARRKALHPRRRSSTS

[37] = molecular target: Alpha-1D adrenergic receptor (Homo sapiens) (UniProt P25100); settings: Compound concentration 10.0 uM
[38] = molecular target: Phosphatidylinositol 5-phosphate 4-kinase type-2 beta (Homo sapiens) (UniProt P78356); settings: Compound concentration 100.0 nM
[39] = molecular target: Receptor-interacting serine/threonine-protein kinase 2 (Homo sapiens) (UniProt O43353); settings: Compound concentration 100.0 nM
[40] = molecular target: Tyrosine-protein kinase receptor TYRO3 (Homo sapiens) (UniProt Q06418); settings: Compound concentration 100.0 nM
[41] = molecular target: GABA-A receptor; anion channel (Rattus norvegicus) (UniProt O09028+P15431+P18506+P18508+P19969+P20236+P23574+P23576+P28471+P28473+P30191+P62813+P63079+P63138+Q91ZM7+Q9ES14); settings: Compound concentration 10.0 uM
[42] = test system: Receptor-type tyrosine-protein kinase FLT3 (Homo sapiens), P36888 [UNDEFINED MUTATION]; settings: Compound concentration 100.0 nM
Sequence of Receptor-type tyrosine-protein kinase FLT3 (Homo sapiens), P36888 [UNDEFINED MUTATION] (P36888 whole entry, looked up, change not shown): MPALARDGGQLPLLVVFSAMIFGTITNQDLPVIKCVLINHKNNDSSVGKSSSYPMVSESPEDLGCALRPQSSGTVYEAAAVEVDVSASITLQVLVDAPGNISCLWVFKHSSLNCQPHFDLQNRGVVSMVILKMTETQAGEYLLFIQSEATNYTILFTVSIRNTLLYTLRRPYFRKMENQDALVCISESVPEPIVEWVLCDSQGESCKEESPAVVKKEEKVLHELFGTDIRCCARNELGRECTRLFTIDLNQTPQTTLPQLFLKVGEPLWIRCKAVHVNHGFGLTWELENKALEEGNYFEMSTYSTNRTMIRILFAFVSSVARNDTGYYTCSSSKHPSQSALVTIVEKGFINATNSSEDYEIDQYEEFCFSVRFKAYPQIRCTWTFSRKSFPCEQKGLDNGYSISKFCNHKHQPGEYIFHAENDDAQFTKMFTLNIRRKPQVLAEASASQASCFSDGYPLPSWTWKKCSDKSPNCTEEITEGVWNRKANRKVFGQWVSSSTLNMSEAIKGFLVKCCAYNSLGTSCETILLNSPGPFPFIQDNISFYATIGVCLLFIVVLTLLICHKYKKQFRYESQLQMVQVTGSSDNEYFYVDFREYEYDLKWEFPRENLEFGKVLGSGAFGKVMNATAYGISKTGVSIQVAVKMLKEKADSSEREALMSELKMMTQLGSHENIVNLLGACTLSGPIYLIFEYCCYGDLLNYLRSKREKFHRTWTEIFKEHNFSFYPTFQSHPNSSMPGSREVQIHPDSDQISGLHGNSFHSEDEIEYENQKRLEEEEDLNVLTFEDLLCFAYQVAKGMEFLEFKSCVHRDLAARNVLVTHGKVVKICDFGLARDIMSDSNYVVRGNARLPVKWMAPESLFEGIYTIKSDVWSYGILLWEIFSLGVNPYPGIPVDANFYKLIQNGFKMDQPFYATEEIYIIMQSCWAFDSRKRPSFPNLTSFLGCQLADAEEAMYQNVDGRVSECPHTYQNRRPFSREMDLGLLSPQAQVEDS

[43] = molecular target: Cyclin-dependent kinase 3 (Homo sapiens) (UniProt Q00526); settings: Compound concentration 100.0 nM
Sequence of Cyclin-dependent kinase 3 (Homo sapiens) (Q00526 whole entry, looked up): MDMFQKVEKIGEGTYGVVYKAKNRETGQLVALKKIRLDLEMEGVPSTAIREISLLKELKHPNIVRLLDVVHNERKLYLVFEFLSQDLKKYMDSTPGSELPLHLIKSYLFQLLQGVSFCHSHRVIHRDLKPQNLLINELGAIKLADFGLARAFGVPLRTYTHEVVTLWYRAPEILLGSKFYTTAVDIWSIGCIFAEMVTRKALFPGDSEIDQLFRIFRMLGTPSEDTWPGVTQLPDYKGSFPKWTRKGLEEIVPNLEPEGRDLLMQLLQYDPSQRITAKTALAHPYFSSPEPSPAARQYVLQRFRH

## Cc1ccc(-c2cnc([C@@]3(O)CC[C@H](C(=O)O)C(C)(C)C3)s2)cc1Nc1cccc(C(F)(F)F)n1 [MRL-SYKi-NC]
[1]
  residual activity: 92.1%
[2]
  residual activity: 95.5%
[3]
  residual activity: 87.4%
[4]
  residual activity: 84.6%
[5]
  residual activity: 87.2%
[6]
  residual activity: 82.8%
[7]
  inhibition: 9.09%
[8]
  residual activity: 100%
[9]
  residual activity: 100%
[10]
  residual activity: 100%
[11]
  residual activity: 100%
[12]
  residual activity: 97.7%
[13]
  inhibition: -5.83%
[14]
  residual activity: 100%
[15]
  residual activity: 60.2%
[16]
  residual activity: 75.8%
[17]
  residual activity: 100%
[18]
  residual activity: 75.8%
[19]
  inhibition: 15.7%
[20]
  residual activity: 100%
[21]
  residual activity: 100%
[22]
  residual activity: 100%
[23]
  residual activity: 100%
[24]
  residual activity: 81.2%
[25]
  residual activity: 74.7%
[26]
  residual activity: 81.9%
[27]
  residual activity: 77.5%
[28]
  residual activity: 89.7%
[29]
  residual activity: 100%
[30]
  residual activity: 100%
[31]
  residual activity: 100%
[32]
  residual activity: 31.8%
[33]
  residual activity: 90.6%
[34]
  residual activity: 96.9%
[35]
  residual activity: 100%
[36]
  residual activity: 84.8%
[37]
  inhibition: -2.32%
[38]
  residual activity: 61.3%
[39]
  residual activity: 96.8%
[40]
  residual activity: 100%
[41]
  inhibition: 19%
[42]
  residual activity: 97.5%
[43]
  residual activity: 92.9%

## Cc1cc(Nc2nccc(C)n2)cc(-c2cnc([C@@]3(O)CC[C@H](C(=O)O)C(C)(C)C3)s2)c1 [MRL-SYKi]
[1]
  residual activity: 100%
[2]
  residual activity: 86.5%
[3]
  residual activity: 66.5%
[4]
  residual activity: 77.7%
[5]
  residual activity: 74.3%
[6]
  residual activity: 50.7%
[7]
  inhibition: 7.85%
[8]
  residual activity: 100%
[9]
  residual activity: 86.1%
[10]
  residual activity: 69.5%
[11]
  residual activity: 100%
[12]
  residual activity: 100%
[13]
  inhibition: 30.6%
[14]
  residual activity: 100%
[15]
  residual activity: 100%
[16]
  residual activity: 100%
[17]
  residual activity: 100%
[18]
  residual activity: 100%
[19]
  inhibition: 3.34%
[20]
  residual activity: 97.5%
[21]
  residual activity: 90.5%
[22]
  residual activity: 100%
[23]
  residual activity: 100%
[24]
  residual activity: 100%
[25]
  residual activity: 72.7%
[26]
  residual activity: 100%
[27]
  residual activity: 100%
[28]
  residual activity: 97.7%
[29]
  residual activity: 87.2%
[30]
  residual activity: 98.8%
[31]
  residual activity: 100%
[32]
  residual activity: 100%
[33]
  residual activity: 100%
[34]
  residual activity: 92.5%
[35]
  residual activity: 64.4%
[36]
  residual activity: 100%
[37]
  inhibition: -4.92%
[38]
  residual activity: 79.6%
[39]
  residual activity: 83.8%
[40]
  residual activity: 60.2%
[41]
  inhibition: 25.9%
[42]
  residual activity: 59.1%
[43]
  residual activity: 100%
